PMC9574863 (Journal of Medicinal Chemistry, 2022)
Where two headings read alike, the source gives them in different places.

Key:
U937 cells [1] = conditions: read-out: differentiation EC50 U937 (C.L. 95%); U937, CD14/CD11b expression
Source text: The differentiation pathway was monitored by analyzing the expression of CD11b (APC-conjugated BD Bioscience San Jose, CA, USA) or CD14 (APC-conjugated Beckam Coulter CA, USA) via flow cytometry analysis. […] Samples were acquired on an FACSVerse (BD-Biosciences San Jose CA) and dead cells were excluded from the analyses, according to the use of propidium iodide (Sigma-Aldrich, Milan, Italy). Data were processed using Kaluza software version 1.2 (Beckman Coulter Fullerton, CA).

U937 cells [2] = conditions: read-out: apoptosis EC50 U937 (C.L. 95%); U937, annexin V, 3 days
[3] = pH 7; cited from earlier work

Cc1c(-c2ccc(-c3ccccc3F)cc2)nc2ccc(F)cc2c1C(=O)O [Brequinar]
EC50 (U937 cells [1]): 214 nM
EC50 (U937 cells [2]): 262 nM

CCn1c(CO)nn(-c2cc(O[C@@H](C)C(F)(F)F)c(C(=O)Nc3c(F)cccc3Cl)cc2F)c1=O [BAY2402234]
solubility [3]: < 4 µM
